Test results taken from patent US20240254140A1, “COMPOUNDS AND THEIR USE IN THE TREATMENT OF BACTERIAL INFECTION” (Hoffmann-La Roche Inc., priority 2021, published 2024).
Values after ≈ are worked out from the molar mass of the structure shown.

Test system: Escherichia coli ATCC 25922
Assay: Minimal Inhibitory Concentration (MIC) determination, broth microdilution
Assay type: cell-based
Details: strain Escherichia coli ATCC 25922, broth microdilution per CLSI M07-A10, 18-24 hours at 35±2° C., lowest concentration for complete growth inhibition; for MIC: ATCC25922
Description: Minimal Inhibitory Concentration (MIC) Determination:
The MIC of antibacterial compounds against multiple species and strains was determined using the broth microdilution method according to M07-A10 Clinical and Laboratory Standards Institute (CLSI) guidelines, using the appropriate broth medium. In short, the compound plates were prepared by dispensing 100 μL of each stock solution in the first well of a 96 well microtiter plate (MTP) at a concentration 100-fold higher than the final concentration desired in broth. Eleven serial 2-fold dilutions of the highest concentration were made in DMSO for new compounds and in water (or appropriate solution) for reference compounds [2]. 1 μL of each well was transferred in a new MTP, which served as the test plate by subsequent inoculation. This bacterial suspension was prepared from strains that were first sub-cultured on agar plates and incubated for 18-24 hours as appropriate. Following incubation, the inoculum was prepared from isolated colonies and adjusted to 0.5 McFarland turbidity standard (1 to 2×10^8 Colony Forming Units (CFU)/mL) in 0.9% saline. The bacterial suspension was then diluted 1:200 in appropriate sterile medium and within 15 minutes 100 μL/well were dispensed. Negative controls (lack of bacterial cells) and growth control wells (lack of compound) were included in all plates. MTPs were incubated for 18-24 hours at 35±2° C. in ambient air. The MIC value of each compound, expressed as μg/mL, was determined as the lowest concentration required for complete growth inhibition (no visible growth). • [1] CLSI (2015) Methods for dilution antimicrobial susceptibility tests for bacteria that grow aerobically; Approved Standard, Tenth Edition. CLSI Document M7-A10 (ISBN 1-56238-987-4). Wayne, PA: Clinical and Laboratory Standards Institute, 19087, USA. • [2] CLSI (2017) Performance Standards for Antimicrobial Susceptibility Testing; Twenty-Fifth Informational Supplement. CLSI Document M100-S27, CLSI, Wayne, Pennsylvania 19087, USA.
Table 1 provides the Minimal Inhibitory Concentrations (MIC) in micrograms per millilitre of the compounds of present invention obtained against the strain Escherichia coli ATCC 25922.

`Cl.N[C@@]1(C(=O)Nc2cc(F)c3c(c2)CC(CNCCC2CN(c4cnc5c(n4)NC(=O)CO5)C(=O)O2)C3)CCOC1` (stereo partly drawn) [Example 41, (3S)-3-amino-N-[7-fluoro-2-[[2-[2-oxo-3-(3-oxo-4H-pyrazino[2,3-b][1,4]oxazin-6-yl)oxazolidin-5-yl]ethylamino]methyl]indan-5-yl]tetrahydrofuran-3-carboxamide; hydrochloride] was tested, and the MIC was 1 µg/mL.
In the case of `O=C1COc2ncc(N3CC4(CCN(CC5Cc6cc(NC(=O)[C@H]7C[C@H](O)CN7)cc(F)c6C5)CC4)OC3=O)nc2N1` (stereo partly drawn) [Example 56, (2R,4S)—N-[7-Fluoro-2-[[2-oxo-3-(3-oxo-4H-pyrazino[2,3-b][1,4]oxazin-6-yl)-1-oxa-3,8-diazaspiro[4.5]decan-8-yl]methyl]indan-5-yl]-4-hydroxy-pyrrolidine-2-carboxamide], the MIC is reported as ≤ 0.06 µg/mL.
With `C[C@@]1(C(=O)Nc2cc(F)c3c(c2)CC(CN2CCC4(CC2)CN(c2cnc5c(n2)NC(=O)CO5)C(=O)O4)C3)C[C@@H](O)CN1` (single isomer, unassigned) [Example 72] the MIC was 0.5 µg/mL (≈ 0.839 µM).
With `C[C@H](C(=O)Nc1cc(F)c2c(c1)CC(F)(CNCCC1CN(c3cnc4c(n3)NC(=O)CO4)C(=O)O1)C2)N(C)C` (stereo partly drawn) [Example 33, (2R)-N-[2,7-difluoro-2-[[2-[2-oxo-3-(3-oxo-4H-pyrazino[2,3-b][1,4]oxazin-6-yl)oxazolidin-5-yl]ethylamino]methyl]indan-5-yl]-2-(dimethylamino)propanamide] the MIC was 0.5 µg/mL (≈ 0.894 µM).
Compound `N[C@H](CO)C(=O)Nc1cc(F)c2c(c1)CC(CNCCC1CN(c3cnc4c(n3)NC(=O)CO4)C(=O)O1)C2` (stereo partly drawn) [Example 38, (2R)-2-amino-N-[7-fluoro-2-[[2-[2-oxo-3-(3-oxo-4H-pyrazino[2,3-b][1,4]oxazin-6-yl)oxazolidin-5-yl]ethylamino]methyl]indan-5-yl]-3-hydroxy-propanamide] has an MIC of 0.5 µg/mL (≈ 0.944 µM).
For `O=C(CN1CC2CC2C1)Nc1cc(F)c2c(c1)CC(CNCCC1CN(c3cnc4c(n3)NC(=O)CO4)C(=O)O1)C2` (stereo not shown) [Example 12, 2-(3-azabicyclo[3.1.0]hexan-3-yl)-N-[7-fluoro-2-[2-[2-oxo-3-(3-oxo-4H-pyrazino[2,3-b][1,4]oxazin-6-yl)oxazolidin-5-yl]ethylaminomethyl]indan-5-yl]acetamide], the MIC was 0.125 µg/mL (≈ 0.221 µM).
With `C[C@H](C(=O)Nc1cc(C#N)c2c(c1)CC(CNCC[C@@H]1CN(c3cnc4c(n3)NC(=O)CO4)C(=O)O1)C2)N(C)C` (stereo partly drawn) [Example 22, (2R)-N-[7-cyano-2-[[2-[(5R)-2-oxo-3-(3-oxo-4H-pyrazino[2,3-b][1,4]oxazin-6-yl)oxazolidin-5-yl]ethylamino]methyl]indan-5-yl]-2-(dimethylamino)propanamide] the MIC was 0.125 µg/mL (≈ 0.228 µM).
In the case of `CN(C)C1(C(=O)Nc2cc(F)c3c(c2)CC(CNCCC2CN(c4cnc5c(n4)NC(=O)CO5)C(=O)O2)C3)CC1` (stereo not shown) [Example 2], the MIC is reported as 1 µg/mL (≈ 1.81 µM).
With `C[C@@]1(C(=O)Nc2cc(F)c3c(c2)CC(CN2CCC4(CC2)CN(c2cnc5c(n2)NC(=O)CO5)C(=O)O4)C3)C[C@@H](O)CN1` (single isomer, unassigned) [Example 73] the “Escherichia coli growth inhibition MIC” value was 0.5 µg/mL.
`C[C@H](C(=O)Nc1cc(F)c2c(c1)C(O)C(CN1CCC3(CC1)CN(c1cnc4c(n1)NC(=O)CO4)C(=O)O3)C2)N(C)C` (stereo partly drawn) [Example 65, (2R)-2-(Dimethylamino)-N-[7-fluoro-3-hydroxy-2-[[2-oxo-3-(3-oxo-4H-pyrazino[2,3-b][1,4]oxazin-6-yl)-1-oxa-3,8-diazaspiro[4.5]decan-8-yl]methyl]indan-5-yl]propanamide] showed an MIC of 0.5 µg/mL (≈ 0.857 µM).
For `O=C1COc2ncc(N3CC4(CCN(CC5Cc6cc(NC(=O)[C@@H]7C[C@H](O)CN7)cc(F)c6C5)CC4)OC3=O)nc2N1` (stereo partly drawn) [Example 57, (2S,4S)—N-[7-Fluoro-2-[[2-oxo-3-(3-oxo-4H-pyrazino[2,3-b][1,4]oxazin-6-yl)-1-oxa-3,8-diazaspiro[4.5]decan-8-yl]methyl]indan-5-yl]-4-hydroxy-pyrrolidine-2-carboxamide], the MIC was ≤ 0.06 µg/mL.
In the case of `COC[C@@H](N)C(=O)Nc1cc(F)c2c(c1)CC(CNCCC1CN(c3cnc4c(n3)NC(=O)CO4)C(=O)O1)C2` (stereo partly drawn) [Example 39, (2R)-2-amino-N-[7-fluoro-2-[[2-[2-oxo-3-(3-oxo-4H-pyrazino[2,3-b][1,4]oxazin-6-yl)oxazolidin-5-yl]ethylamino]methyl]indan-5-yl]-3-methoxy-propanamide], the MIC is reported as 0.5 µg/mL (≈ 0.92 µM).
Compound `CN1C[C@H](O)C[C@H]1C(=O)Nc1cc(F)c2c(c1)CC(CN1CCC3(CC1)CN(c1cnc4c(n1)NC(=O)CO4)C(=O)O3)C2` (stereo partly drawn) [Example 64, (2S,4R)—N-[7-Fluoro-2-[[2-oxo-3-(3-oxo-4H-pyrazino[2,3-b][1,4]oxazin-6-yl)-1-oxa-3,8-diazaspiro[4.5]decan-8-yl]methyl]indan-5-yl]-4-hydroxy-1-methyl-pyrrolidine-2-carboxamide] has an MIC of 0.25 µg/mL (≈ 0.42 µM).
`C[C@@H](C(=O)Nc1cc(F)c2c(c1)CC(CNCCC1CN(c3cnc4c(n3)NC(=O)CO4)C(=O)O1)C2)N(C)C` (stereo partly shown) [Example 9] was tested, and the MIC was 0.125 µg/mL (≈ 0.231 µM).
In the case of `C[C@H](C(=O)Nc1cc(F)c2c(c1)CC(CN(C)CCC1CN(c3cnc4c(n3)NC(=O)CO4)C(=O)O1)C2)N(C)C` (stereo partly drawn) [Example 58, (2R)-2-(Dimethylamino)-N-[7-fluoro-2-[[methyl-[2-[2-oxo-3-(3-oxo-4H-pyrazino[2,3-b][1,4]oxazin-6-yl)oxazolidin-5-yl]ethyl]amino]methyl]indan-5-yl]propanamide], the MIC is reported as 0.25 µg/mL (≈ 0.45 µM).
`CN(C)C(C)(C)C(=O)Nc1cc(F)c2c(c1)CC(CN1CCC3(CC1)CN(c1cnc4c(n1)NC(=O)CO4)C(=O)O3)C2` (stereo not shown) [Example 6] showed an MIC of 0.25 µg/mL (≈ 0.43 µM).
`CN1CCC[C@@H]1C(=O)Nc1cc(C#N)c2c(c1)CC(CNCCC1CN(c3cnc4c(n3)NC(=O)CO4)C(=O)O1)C2` (stereo partly drawn) [Example 62, (2R)—N-[7-Cyano-2-[[2-[2-oxo-3-(3-oxo-4H-pyrazino[2,3-b][1,4]oxazin-6-yl)oxazolidin-5-yl]ethylamino]methyl]indan-5-yl]-1-methyl-pyrrolidine-2-carboxamide] was tested, and the MIC was ≤ 0.06 µg/mL.
With `COC1(CNCC2CN(c3cnc4c(n3)NC(=O)CO4)C(=O)O2)Cc2c(F)cc(NC(=O)[C@@H](C)N(C)C)c(F)c2C1` (stereo partly shown) [Example 31] the MIC was 4 µg/mL (≈ 6.95 µM).
In the case of `O=C(O)C(F)(F)F.O=C1COc2ncc(N3CC4(CCN(CC5Cc6cc(NC(=O)[C@]7(CO)CCCN7)cc(F)c6C5)CC4)OC3=O)nc2N1` (stereo partly drawn) [Example 53, (2R)—N-[7-Fluoro-2-[[2-oxo-3-(3-oxo-4H-pyrazino[2,3-b][1,4]oxazin-6-yl)-1-oxa-3,8-diazaspiro[4.5]decan-8-yl]methyl]indan-5-yl]-2-(hydroxymethyl)pyrrolidine-2-carboxamide; 2,2,2-trifluoroacetic Acid], the MIC is reported as 0.25 µg/mL.
In the case of `C[C@H](C(=O)Nc1cc(F)c2c(c1)C(F)C(CNCC[C@@H]1CN(c3cnc4c(n3)NC(=O)CO4)C(=O)O1)C2)N(C)C` (stereo partly drawn) [Example 67, (2R)—N-[3,7-Difluoro-2-[[2-[(5R)-2-oxo-3-(3-oxo-4H-pyrazino[2,3-b][1,4]oxazin-6-yl)oxazolidin-5-yl]ethylamino]methyl]indan-5-yl]-2-(dimethylamino)propanamide], the MIC is reported as 0.5 µg/mL (≈ 0.894 µM).
For `CO[C@@H]1C[C@@H](C(=O)Nc2cc(F)c3c(c2)CC(CNCCC2CN(c4cnc5c(n4)NC(=O)CO5)C(=O)O2)C3)N(C)C1` (stereo partly drawn) [Example 17, (2S,4R)-N-[7-fluoro-2-[[2-[2-oxo-3-(3-oxo-4H-pyrazino[2,3-b][1,4]oxazin-6-yl)oxazolidin-5-yl]ethylamino]methyl]indan-5-yl]-4-methoxy-1-methyl-pyrrolidine-2-carboxamide], the MIC was 1 µg/mL (≈ 1.71 µM).
With `Cc1cc(NC(=O)[C@@H]2CCCN2C)nc2c1CC(CNCCC1CN(c3cnc4c(n3)NC(=O)CO4)C(=O)O1)C2` (stereo partly drawn) [Example 27, (2S)-1-methyl-N-[4-methyl-6-[[2-[2-oxo-3-(3-oxo-4H-pyrazino[2,3-b][1,4]oxazin-6-yl)oxazolidin-5-yl]ethylamino]methyl]-6,7-dihydro-5H-cyclopenta[b]pyridin-2-yl]pyrrolidine-2-carboxamide] the MIC was 1 µg/mL (≈ 1.82 µM).
In the case of `Cc1nc(NC(=O)[C@@H](C)N(C)C)cc2c1CC(CNCCC1CN(c3cnc4c(n3)NC(=O)CO4)C(=O)O1)C2` (stereo partly drawn) [Example 28, (2R)-2-(dimethylamino)-N-[1-methyl-6-[[2-[2-oxo-3-(3-oxo-4H-pyrazino[2,3-b][1,4]oxazin-6-yl)oxazolidin-5-yl]ethylamino]methyl]-6,7-dihydro-5H-cyclopenta[c]pyridin-3-yl]propanamide], the MIC is reported as 0.5 µg/mL (≈ 0.928 µM).
Compound `CN1CCC[C@@H]1C(=O)Nc1cc(F)c2c(c1)CC(CNCCC1CN(c3cnc4c(n3)NC(=O)CO4)C(=O)O1)C2` (stereo partly drawn) [Example 14, (2R)-N-[7-fluoro-2-[[2-[2-oxo-3-(3-oxo-4H-pyrazino[2,3-b][1,4]oxazin-6-yl)oxazolidin-5-yl]ethylamino]methyl]indan-5-yl]-1-methyl-pyrrolidine-2-carboxamide] has an MIC of 0.125 µg/mL (≈ 0.226 µM).
`O=C1COc2ncc(N3CC(CCNCC4Cc5cc(NC(=O)[C@H]6C[C@@H](O)CN6)cc(F)c5C4)OC3=O)nc2N1` (stereo partly shown) [Example 45] showed an MIC of 1 µg/mL (≈ 1.8 µM).
